# In US8658416B2, “Toxin-eating bacteria and bioremediation” (priority 2008, dated 2014):
# How the values were obtained:
# [1] = Un-inoculated media controls monitored by HPLC (antibiotic stability in SCS medium); format: physicochemical; conditions: 20 or 28 days, HPLC at 214 nm
# Method: Representative isolates capable of growth on penicillin and carbenicillin as sole carbon source were selected for analysis of antibiotic removal from the growth media by High Performance Liquid Chromatography (HPLC). 2 μL of these cultures were re-inoculated into fresh SCS-antibiotic medium (5 mL) and allowed to grow for 28 days. Samples of the cultures and un-inoculated media controls were taken at regular intervals throughout the 28 day period and the catabolism of penicillin and carbenicillin was monitored at 214 nm by HPLC of filtered media from samples using a Hewlett Packard 1090 Liquid Chromatograph and a Vydac C-18 column. HPLC was performed at a flow rate of 0.3 mL/min with an acetonitrile gradient going from 5% to 65% in 30 minutes in the presence of 0.1% trifluoroacetic acid.
# [2] = tested on: clonal bacterial isolates from 11 diverse soils; format: cell-based, soil bacteria; conditions: antibiotic as sole carbon source at 1 g/L in SCS media pH 5.5, 22° C., positive growth at least 10^8 cells/mL
# Method: The pH was adjusted to 5.5 using HCl, and the media was sterilized through a 0.22 μm filter. Solid medium was prepared by adding 15 g agar per liter of liquid SCS media followed by autoclaving before adding antibiotics.
# Clonal isolates from the liquid cultures were obtained by plating cultures out on SCS-antibiotic agar medium and resulting single colonies were picked and re-streaked on corresponding plates. Three colonies each were then inoculated into fresh SCS-antibiotic liquid media (5 mL) to confirm clonal phenotype. Final culture growth was recorded after 1 month incubation without shaking at 22° C. and cultures with at least 10^8 cells/mL were assayed as positive growth.
# All antibiotics used were purchased from Sigma-Aldrich at the highest purities available.
SMILES,antibiotic peak in the un-inoculated control over the same time course [1],soils from which clonal isolates capable of subsisting on the antibiotic were obtained [2]
"CC1(C)S[C@@H]2[C@H](NC(=O)C(C(=O)O)c3ccccc3)C(=O)N2[C@H]1C(=O)O (stereo partly drawn) [carbenicillin, Carbenicillin]",remained relatively unchanged,all the soils tested
"CC1(C)S[C@@H]2[C@H](NC(=O)Cc3ccccc3)C(=O)N2[C@H]1C(=O)O [penicillin, Penicillin G]",remained the dominant peak,all the soils tested
"CCn1cc(C(=O)O)c(=O)c2ccc(C)nc21 [nalidixic acid, Nalidixic acid]",–,a majority of the soils
"Cc1onc(-c2c(Cl)cccc2Cl)c1C(=O)N[C@@H]1C(=O)N2[C@@H]1SC(C)(C)[C@@H]2C(=O)O [dicloxacillin, Dicloxacillin]",–,9 out of 11 soils
